Among the data in patent US11098044B2, “Imidazopyridinyl compounds and use thereof for treatment of neurodegenerative disorders” (1ST Biotherapeutics, Inc., priority 2019, dated 2021) are IC50 values, retold here.

Holding throughout (assay type): biochemical
Experiment [1] concerns the target LRRK2 (WT) (Homo sapiens (Human), UniProt Q5S007). The experiment can be described thus: LRRK2 Kinase Assay (Adapta). As to conditions: 70 μM ATP, LRRKtide substrate. Summed up:
(§1)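 Adapta TR-FRET kinase assay with LRRKtide substrate in 50 mM Tris pH 8.5, 0.01% BRIJ-35, 10 mM MgCl2, 1 mM EGTA, 0.02% NaN3. ATP at Km: 70 μM for WT LRRK2, 100 μM for G2019S. Reaction 1 h at room temperature; after 60 min with detection mix, 665/615 nm emission ratio read.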

For experiment [2], the target named is c-Abl (His-tagged recombinant human ABL1) (Homo sapiens (Human), UniProt P00519). Briefly: c-abl Kinase Assay (ADP-Glo). As to conditions: ATP (25 μM), Abltide substrate. Summed up:
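His-tagged human ABL1 (0.25 ng/μl), Abltide (0.01 μg/μl) and ATP (25 μM), each at its added concentration, reacted with compound (0.5% DMSO) for 30 min at 30 °C. Buffer was 50 mM HEPES pH 7.5, 10 mM MgCl2, 1 mM EGTA, 0.05% BSA, 0.01% Triton X-100, 2 mM DTT. ADP formed was read by ADP-Glo luminescence, and IC50 was fitted from percent inhibition across concentrations.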
(In ADP-Glo the light output rises with the ADP produced.)

Experiment [3] deals with LRRK2 G2019S (Homo sapiens (Human), UniProt Q5S007, G2019S). Briefly: LRRK2 G2019S Kinase Assay (Adapta). To be noted: 100 μM ATP, LRRKtide substrate; read-out: LRRK2_G2019S IC50. The essentials:
as §1

Where a name gives a salt, the structure may show the parent alone.

Chain of c-Abl (His-tagged recombinant human ABL1) (P00519 whole entry): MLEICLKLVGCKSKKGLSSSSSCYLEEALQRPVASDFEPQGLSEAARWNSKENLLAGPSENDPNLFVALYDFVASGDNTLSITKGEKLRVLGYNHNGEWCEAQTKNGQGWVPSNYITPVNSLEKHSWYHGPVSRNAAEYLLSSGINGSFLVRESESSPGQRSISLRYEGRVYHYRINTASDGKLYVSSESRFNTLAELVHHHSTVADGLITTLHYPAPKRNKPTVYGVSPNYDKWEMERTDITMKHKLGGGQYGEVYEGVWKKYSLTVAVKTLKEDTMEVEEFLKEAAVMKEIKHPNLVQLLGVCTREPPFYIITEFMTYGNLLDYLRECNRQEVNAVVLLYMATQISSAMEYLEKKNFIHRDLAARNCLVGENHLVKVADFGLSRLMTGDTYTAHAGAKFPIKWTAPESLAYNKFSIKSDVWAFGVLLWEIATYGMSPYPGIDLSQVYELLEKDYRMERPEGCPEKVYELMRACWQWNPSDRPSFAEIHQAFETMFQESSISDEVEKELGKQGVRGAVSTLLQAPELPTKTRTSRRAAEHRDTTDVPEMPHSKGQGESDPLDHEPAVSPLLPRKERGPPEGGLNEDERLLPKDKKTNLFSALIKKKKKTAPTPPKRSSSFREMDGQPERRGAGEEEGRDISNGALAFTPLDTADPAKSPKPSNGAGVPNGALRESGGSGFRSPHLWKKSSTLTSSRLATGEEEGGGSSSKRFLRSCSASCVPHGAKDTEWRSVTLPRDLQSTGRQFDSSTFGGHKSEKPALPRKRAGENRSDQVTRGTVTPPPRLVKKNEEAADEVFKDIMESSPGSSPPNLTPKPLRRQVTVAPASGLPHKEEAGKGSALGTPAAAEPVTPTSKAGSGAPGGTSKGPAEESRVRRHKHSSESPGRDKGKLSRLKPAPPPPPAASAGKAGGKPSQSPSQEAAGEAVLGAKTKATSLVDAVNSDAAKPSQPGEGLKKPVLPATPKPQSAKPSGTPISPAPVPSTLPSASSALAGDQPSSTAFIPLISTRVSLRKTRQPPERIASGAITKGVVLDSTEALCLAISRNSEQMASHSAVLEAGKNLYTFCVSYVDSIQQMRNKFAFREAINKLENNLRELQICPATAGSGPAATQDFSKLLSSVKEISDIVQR
Chain of LRRK2 (WT) (Q5S007 whole entry): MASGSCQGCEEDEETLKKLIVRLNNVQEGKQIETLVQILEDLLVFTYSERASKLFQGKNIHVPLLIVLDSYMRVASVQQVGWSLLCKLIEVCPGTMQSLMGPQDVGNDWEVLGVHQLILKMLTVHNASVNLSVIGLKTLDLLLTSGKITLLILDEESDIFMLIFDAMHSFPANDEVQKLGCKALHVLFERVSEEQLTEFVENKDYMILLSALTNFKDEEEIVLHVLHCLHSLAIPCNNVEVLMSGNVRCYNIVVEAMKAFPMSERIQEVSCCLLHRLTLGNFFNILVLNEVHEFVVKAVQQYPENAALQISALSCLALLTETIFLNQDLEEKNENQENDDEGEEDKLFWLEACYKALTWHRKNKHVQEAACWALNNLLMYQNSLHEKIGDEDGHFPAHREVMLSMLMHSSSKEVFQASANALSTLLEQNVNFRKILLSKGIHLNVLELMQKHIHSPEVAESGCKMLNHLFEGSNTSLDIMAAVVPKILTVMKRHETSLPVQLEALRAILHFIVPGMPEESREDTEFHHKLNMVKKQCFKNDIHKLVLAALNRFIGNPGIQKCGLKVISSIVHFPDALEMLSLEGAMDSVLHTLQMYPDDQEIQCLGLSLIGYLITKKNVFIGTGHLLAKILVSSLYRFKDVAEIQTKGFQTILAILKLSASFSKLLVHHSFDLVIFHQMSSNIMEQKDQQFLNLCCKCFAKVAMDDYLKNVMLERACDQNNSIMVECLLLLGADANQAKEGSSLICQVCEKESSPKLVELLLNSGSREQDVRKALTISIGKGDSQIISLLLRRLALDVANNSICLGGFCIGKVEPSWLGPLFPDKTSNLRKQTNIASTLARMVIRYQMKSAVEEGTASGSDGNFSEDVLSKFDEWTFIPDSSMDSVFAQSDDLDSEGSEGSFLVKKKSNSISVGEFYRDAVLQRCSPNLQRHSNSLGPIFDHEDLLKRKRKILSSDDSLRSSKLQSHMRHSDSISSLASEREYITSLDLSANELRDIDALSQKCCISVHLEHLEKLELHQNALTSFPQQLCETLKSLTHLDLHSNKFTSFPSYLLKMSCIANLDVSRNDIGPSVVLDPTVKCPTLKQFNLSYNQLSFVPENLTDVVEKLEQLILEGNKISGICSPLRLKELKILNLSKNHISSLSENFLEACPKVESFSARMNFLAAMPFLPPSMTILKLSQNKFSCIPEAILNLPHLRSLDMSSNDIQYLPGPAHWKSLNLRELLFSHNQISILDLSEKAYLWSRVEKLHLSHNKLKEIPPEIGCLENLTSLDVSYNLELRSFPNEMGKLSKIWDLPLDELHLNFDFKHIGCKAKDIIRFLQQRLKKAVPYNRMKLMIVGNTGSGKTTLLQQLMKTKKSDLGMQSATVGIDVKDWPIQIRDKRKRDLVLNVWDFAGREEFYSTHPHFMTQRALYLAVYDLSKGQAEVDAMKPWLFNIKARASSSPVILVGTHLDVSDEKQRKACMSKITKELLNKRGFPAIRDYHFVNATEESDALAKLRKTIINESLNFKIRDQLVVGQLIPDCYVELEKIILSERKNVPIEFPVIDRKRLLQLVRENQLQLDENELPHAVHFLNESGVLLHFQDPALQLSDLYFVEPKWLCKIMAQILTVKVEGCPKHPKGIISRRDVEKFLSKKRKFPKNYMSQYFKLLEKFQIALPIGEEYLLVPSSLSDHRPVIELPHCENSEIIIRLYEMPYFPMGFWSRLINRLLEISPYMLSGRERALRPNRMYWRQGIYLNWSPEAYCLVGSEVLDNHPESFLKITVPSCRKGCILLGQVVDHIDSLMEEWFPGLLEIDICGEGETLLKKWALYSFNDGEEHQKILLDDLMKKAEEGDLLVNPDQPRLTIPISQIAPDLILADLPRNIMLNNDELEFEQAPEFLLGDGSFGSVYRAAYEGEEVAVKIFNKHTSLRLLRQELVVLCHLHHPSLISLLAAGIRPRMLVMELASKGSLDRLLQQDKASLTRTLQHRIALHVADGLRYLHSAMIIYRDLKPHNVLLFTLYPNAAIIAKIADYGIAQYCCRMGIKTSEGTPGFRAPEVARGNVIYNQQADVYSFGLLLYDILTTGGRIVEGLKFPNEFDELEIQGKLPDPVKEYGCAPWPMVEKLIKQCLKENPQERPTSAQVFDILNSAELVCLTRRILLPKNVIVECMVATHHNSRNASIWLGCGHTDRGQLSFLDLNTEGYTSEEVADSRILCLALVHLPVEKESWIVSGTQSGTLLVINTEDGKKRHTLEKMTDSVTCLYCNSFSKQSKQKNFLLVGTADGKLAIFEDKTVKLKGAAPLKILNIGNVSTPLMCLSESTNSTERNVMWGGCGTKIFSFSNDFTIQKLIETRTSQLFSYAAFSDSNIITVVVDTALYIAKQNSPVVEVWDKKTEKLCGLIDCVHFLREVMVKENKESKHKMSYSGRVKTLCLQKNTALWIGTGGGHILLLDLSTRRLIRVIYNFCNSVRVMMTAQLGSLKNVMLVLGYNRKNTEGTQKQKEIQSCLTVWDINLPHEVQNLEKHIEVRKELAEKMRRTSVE
Chain of LRRK2 G2019S (Q5S007 whole entry G2019S): as the sequence (Q5S007 whole entry) above, with G2019S counted along it

Broadly, the IC50 is the concentration that inhibits the measured activity by half. Consider `Cc1c[nH]c2ncc(-c3ccc4nc(NC(=O)[C@@H]5C[C@@H]5F)cn4c3)cc12` [Example 53, (1S,2S)-2-fluoro-N-(6-(3-methyl-1H-pyrrolo[2,3-b]pyridin-5-yl)imidazo[1,2-a]pyridin-2-yl)cyclopropane-1-carboxamide], for which the IC50 was 101 to 1000 nM in experiment [1], under 10 nM in experiment [2] and 10 to 100 nM in experiment [3].
Turning to `Nc1ccc(-c2ccc3nc(NC(=O)[C@@H]4C[C@@H]4F)cn3c2)cn1` [Example 55, (1S,2S)—N-(6-(6-aminopyridin-3-yl)imidazo[1,2-a]pyridin-2-yl)-2-fluorocyclopropane-1-carboxamide], the IC50 in experiment [1] lay in the range of 101 to 1000 nM; in experiment [2] it was 10 to 100 nM; in experiment [3], 101 to 1000 nM.
`Cc1c(F)cccc1-c1ccc2nc(NC(=O)[C@@H]3C[C@@H]3F)cn2c1` [Example 1, (1S,2S)-2-fluoro-N-(6-(3-fluoro-2-methylphenyl)imidazo[1,2-a]pyridin-2-yl)cyclopropane-1-carboxamide Hydrochloride]: the IC50 is 10 to 100 nM in experiment [1], under 10 nM in experiment [2] and 10 to 100 nM in experiment [3].
Take `Cc1ccc(-n2cccn2)cc1-c1ccc2nc(NC(=O)[C@@H]3C[C@@H]3F)cn2c1` [Example 56, (1S,2S)-2-fluoro-N-(6-(2-methyl-5-(1H-pyrazol-1-yl)phenyl)imidazo[1,2-a]pyridin-2-yl)cyclopropane-1-carboxamide]: the IC50 was 101 to 1000 nM in experiment [1], under 10 nM in experiment [2] and 101 to 1000 nM in experiment [3].
As for `Cc1cccc(F)c1-c1ccc2nc(NC(=O)[C@@H]3C[C@@H]3F)cn2c1` [Example 2, (1S,2S)-2-fluoro-N-(6-(2-fluoro-6-methylphenyl)imidazo[1,2-a]pyridin-2-yl)cyclopropane-1-carboxamide], the IC50 in experiment [1] is 101 to 1000 nM; in experiment [2] it was under 10 nM; in experiment [3], 10 to 100 nM.
For the molecule `Cc1c(Cl)cccc1-c1ccc2nc(NC(=O)[C@@H]3C[C@@H]3F)cn2c1` [Example 30, (1S,2S)—N-(6-(3-chloro-2-methylphenyl)imidazo[1,2-a]pyridin-2-yl)-2-fluorocyclopropane-1-carboxamide], the IC50 in experiment [1] is 101 to 1000 nM; in experiment [2] it was under 10 nM; in experiment [3], 101 to 1000 nM.
`Cc1ccc(-c2cc[nH]n2)cc1-c1ccc2nc(NC(=O)[C@@H]3C[C@@H]3F)cn2c1` [Example 28, (1S,2S)-2-fluoro-N-(6-(2-methyl-5-(1H-pyrazol-3-yl)phenyl)imidazo[1,2-a]pyridin-2-yl)cyclopropane-1-carboxamide]: the values for the IC50 in experiment [1], in experiment [2] and in experiment [3] were 101 to 1000 nM, under 10 nM and 101 to 1000 nM, respectively.
For the molecule `Cc1c(F)cccc1-c1ccc2nc(NC(=O)[C@@H]3C[C@@H]3F)c(F)n2c1` [Example 33, (1S,2S)-2-fluoro-N-(3-fluoro-6-(3-fluoro-2-methylphenyl)imidazo[1,2-a]pyridin-2-yl)cyclopropane-1-carboxamide], the IC50 in experiment [1] was 101 to 1000 nM; in experiment [2] it was under 10 nM; in experiment [3], 101 to 1000 nM.
For `Cc1ccc(-c2ccc3nc(NC(=O)[C@@H]4C[C@@H]4F)cn3c2)c(C)c1` [Example 32, (1S,2S)—N-(6-(2,4-dimethylphenyl)imidazo[1,2-a]pyridin-2-yl)-2-fluorocyclopropane-1-carboxamide], the IC50 in experiment [1] was 101 to 1000 nM; in experiment [2] it was under 10 nM; in experiment [3] it was 101 to 1000 nM.
In the case of `CC(=O)c1c(F)cccc1-c1ccc2nc(NC(=O)[C@@H]3C[C@@H]3F)cn2c1` [Example 68, (1S,2S)—N-(6-(2-acetyl-3-fluorophenyl)imidazo[1,2-a]pyridin-2-yl)-2-fluorocyclopropanecarboxamide], the figures for the IC50 in experiment [1], in experiment [2] and in experiment [3] were over 1000 nM, 10 to 100 nM and over 1000 nM, respectively.
With `Cc1cc(F)c(O)cc1-c1ccc2nc(NC(=O)[C@@H]3C[C@@H]3F)cn2c1` [Example 43, (1S,2S)-2-fluoro-N-(6-(4-fluoro-5-hydroxy-2-methylphenyl)imidazo[1,2-a]pyridin-2-yl)cyclopropane-1-carboxamide], the half-maximal inhibitory concentration (IC50) in experiment [1] was 101 to 1000 nM; in experiment [2] it was under 10 nM; in experiment [3] it was 10 to 100 nM.
Consider `Cc1cc(F)ccc1-c1ccc2nc(NC(=O)[C@@H]3C[C@@H]3F)cn2c1` [Example 39, (1S,2S)-2-fluoro-N-(6-(4-fluoro-2-methylphenyl)imidazo[1,2-a]pyridin-2-yl)cyclopropane-1-carboxamide], for which the IC50 in experiment [1] was 101 to 1000 nM; in experiment [2], under 10 nM; in experiment [3], 10 to 100 nM.
For `O=C(Nc1cn2cc(-c3cnccc3Cl)ccc2n1)[C@@H]1C[C@@H]1F` [Example 21, (1S,2S)—N-(6-(4-chloropyridin-3-yl)imidazo[1,2-a]pyridin-2-yl)-2-fluorocyclopropane-1-carboxamide], the results for the IC50 in experiment [1], in experiment [2] and in experiment [3] were 101 to 1000 nM, 10 to 100 nM and 101 to 1000 nM, respectively.
In the case of `Cc1cccc(F)c1-c1ccc2nc(NC(=O)[C@@H]3C[C@@H]3F)c(Cl)n2c1` [Example 4, (1S,2S)—N-(3-chloro-6-(2-fluoro-6-methylphenyl)imidazo[1,2-a]pyridin-2-yl)-2-fluorocyclopropane-1-carboxamide], the IC50 is over 1000 nM in experiment [1], 10 to 100 nM in experiment [2] and 101 to 1000 nM in experiment [3].
For `Cc1c(F)cncc1-c1ccc2nc(NC(=O)[C@@H]3C[C@@H]3F)c(Cl)n2c1` [Example 16, (1S,2S)—N-(3-chloro-6-(5-fluoro-4-methylpyridin-3-yl)imidazo[1,2-a]pyridin-2-yl)-2-fluorocyclopropane-1-carboxamide], in that order: over 1000 nM, 101 to 1000 nM and over 1000 nM.
In the same order, the values of `N#Cc1ccncc1-c1ccc2nc(NC(=O)[C@@H]3C[C@@H]3F)cn2c1` [Example 36, (1S,2S)—N-(6-(4-cyanopyridin-3-yl)imidazo[1,2-a]pyridin-2-yl)-2-fluorocyclopropane-1-carboxamide] are over 1000 nM, 101 to 1000 nM and 101 to 1000 nM.
For `Cc1c(-c2ccc3nc(NC(=O)[C@@H]4C[C@@H]4F)cn3c2)ccc(Cl)c1F` [Example 46, (1S,2S)—N-(6-(4-chloro-3-fluoro-2-methylphenyl)imidazo[1,2-a]pyridin-2-yl)-2-fluorocyclopropane-1-carboxamide], in that order: 101 to 1000 nM, under 10 nM and 101 to 1000 nM.
With `Cc1c(F)cccc1-c1ccc2nc(NC(=O)C3CC(F)(F)C3)cn2c1` [Example 79, 3,3-difluoro-N-(6-(3-fluoro-2-methylphenyl)imidazo[1,2-a]pyridin-2-yl)cyclobutanecarboxamide], the IC50 was 101 to 1000 nM in experiment [1], 10 to 100 nM in experiment [2] and 101 to 1000 nM in experiment [3].
Turning to `Cc1cccc(F)c1-c1ccc2nc(NC(=O)[C@@H]3C[C@@H]3F)c(C)n2c1` [Example 9, (1S,2S)-2-fluoro-N-(6-(2-fluoro-6-methylphenyl)-3-methylimidazo[1,2-a]pyridin-2-yl)cyclopropane-1-carboxamide], the IC50 is 101 to 1000 nM in experiment [1], 10 to 100 nM in experiment [2] and 101 to 1000 nM in experiment [3].
For `Cc1c(F)cccc1-c1ccc2nc(NC(=O)[C@@H]3C[C@H]3F)cn2c1` (stereo in doubt) [Example 72, 2-fluoro-N-(6-(3-fluoro-2-methylphenyl)imidazo[1,2-a]pyridin-2-yl)cyclopropanecarboxamide], the IC50 in experiment [1] was 10 to 100 nM; in experiment [2], under 10 nM; in experiment [3] it was 10 to 100 nM.
`Cc1c(-c2ccc3nc(NC(=O)[C@@H]4C[C@@H]4F)cn3c2)ccc(F)c1F` [Example 44, (1S,2S)—N-(6-(3,4-difluoro-2-methylphenyl)imidazo[1,2-a]pyridin-2-yl)-2-fluorocyclopropane-1-carboxamide]: the IC50 in experiment [1] is 101 to 1000 nM; in experiment [2], under 10 nM; in experiment [3] it was 10 to 100 nM.
In the same order, the values of `COCCOCc1c(F)cccc1-c1ccc2nc(NC(=O)[C@@H]3C[C@@H]3F)cn2c1` [Example 82, (1S,2S)-2-fluoro-N-(6-(3-fluoro-2-((2-methoxyethoxy)methyl)phenyl)imidazo[1,2-a]pyridin-2-yl)cyclopropanecarboxamide] are over 1000 nM, 10 to 100 nM and 101 to 1000 nM.
With `Cc1c(F)cccc1-c1ccc2nc(NC(=O)[C@@H]3C[C@@H]3F)c(C)n2c1` [Example 8, (1S,2S)-2-fluoro-N-(6-(3-fluoro-2-methylphenyl)-3-methylimidazo[1,2-a]pyridin-2-yl)cyclopropane-1-carboxamide], the IC50 in experiment [1] was 101 to 1000 nM; in experiment [2], 10 to 100 nM; in experiment [3], 101 to 1000 nM.
On to `Cc1ccc(O)cc1-c1ccc2nc(NC(=O)[C@@H]3C[C@@H]3F)cn2c1` [Example 12, (1S,2S)-2-fluoro-N-(6-(5-hydroxy-2-methylphenyl)imidazo[1,2-a]pyridin-2-yl)cyclopropane-1-carboxamide], for which the IC50 in experiment [1] is 10 to 100 nM; in experiment [2], under 10 nM; in experiment [3], 10 to 100 nM.
With `Cc1cc(F)cc(C)c1-c1ccc2nc(NC(=O)[C@@H]3C[C@@H]3F)cn2c1` [Example 38, (1S,2S)-2-fluoro-N-(6-(4-fluoro-2,6-dimethylphenyl)imidazo[1,2-a]pyridin-2-yl)cyclopropane-1-carboxamide], the IC50 in experiment [1] is 101 to 1000 nM; in experiment [2] it was under 10 nM; in experiment [3] it was 101 to 1000 nM.
